From patent publication US11629141B2, “Proteasome inhibitors and uses thereof” (CORNELL UNIVERSITY, priority 2015, dated 2023) come the findings set out here.

As usually defined, the IC50 is the concentration needed to halve the response being measured.

The target in assay [1] is T1, human immunoproteasome β5i (Homo sapiens, UniProt P28062).
T1 construct: purchased Boston Biochem Inc
The assay is described as follows: IC50 against chymotryptic β5i activity of human immunoproteasome (96-well plate, Ac-ANW-AMC). In kind it is biochemical. As to conditions: for IC50: β5i, substrate Ac-ANW-AMC, read-out: IC50 Hu i-20S (Ac-ANW-AMC). The procedure: A 96-well-plate assays were used to determine the IC50s against the chymotryptic β5 activities of the proteasomes. Both human constitutive proteasome and immunoproteasome were purchased from Boston Biochem Inc. 1 μL of 100× compound in DMSO at designated concentrations were spotted at the bottom of the wells. DMSO was used as a control. […] The hydrolysis of the substrate over time in each well was monitored at excitation 360 nm, emission 460 nm for 90 minutes. IC50s were estimated by fitting the velocities of hydrolysis against compound concentrations using PRISM. […] SDS (0.02%) was used as activator, and 0.01% BSA was used in the reaction buffer.

For assay [2], the target named is T2, human constitutive proteasome β5c (Homo sapiens, UniProt P28074).
T2 construct: purchased Boston Biochem Inc
The assay is described as follows: IC50 against chymotryptic β5c activity of human constitutive proteasome (96-well plate, Suc-LLVY-AMC). In kind it is biochemical. As to conditions: for IC50: β5c, substrate Suc-LLVY-AMC, read-out: IC50 Hu c-20S (Suc-LLVY-AMC). Here is the method: A 96-well-plate assays were used to determine the IC50s against the chymotryptic β5 activities of the proteasomes. Both human constitutive proteasome and immunoproteasome were purchased from Boston Biochem Inc. 1 μL of 100× compound in DMSO at designated concentrations were spotted at the bottom of the wells. DMSO was used as a control. Final concentrations of the inhibitors were from 100 μM to 0.098 μM. The hydrolysis of the substrate over time in each well was monitored at excitation 360 nm, emission 460 nm for 90 minutes. IC50s were estimated by fitting the velocities of hydrolysis against compound concentrations using PRISM. […] Suc-LLVY-AMC was used for βc at final concentration of 25 μM, and Ac-ANW-AMC for b5i at final concentration of 15 μM. SDS (0.02%) was used as activator, and 0.01% BSA was used in the reaction buffer.
The foregoing features of these AsnEDA encouraged a further round of SAR studies (Table 5) based on varying the carboxylic acid at the ethylenediamine, the N-cap at the Asn, and the side chain of the Asn, based on PKS21004. All compounds listed in the Table 5 were synthesized as described in Examples 6-77. All final compounds were confirmed by NMR and HRMS. IC50s of all compounds against β5i and β5c (Table 5), β1i, β2i, β1c and β2c were determined following a reported method (Lin et al., “N,C-Capped Dipeptides With Selectivity for Mycobacterial Proteasome Over Human Proteasomes: Role of S3 and S1Binding Pockets,” J Am Chem Soc. 135:9968-9971 (2013), which is hereby incorporated by reference in its entirety). […] The [1,1′-biphenyl]-3-carboxamide of PKS21004 was then modified with the following substituents: 4′-fluoro (PKS21026), 4′-cyano (PKS21028), 4-fluoro (PKS21196), 4,3′-difluoro (PKS21195) and 4,2′-difluoro (PKS21187).

Molecules are shown by their SMILES. Where only a bound is given, the exact number is not on record here.

`Cc1ccc(S(=O)(=O)N[C@@H](CC(=O)NC(C)(C)C)C(=O)NCCNC(=O)c2cccc(-c3cc[nH]n3)c2)cc1` [PKS21282]: the IC50 in assay [1] was found to be 0.069 µM; in assay [2], 1.29 µM.
In the same order, the values of `CC(=O)N[C@@H](CC(=O)NC(C)(C)C)C(=O)NCCNC(=O)c1cc(-c2ccccc2F)ccc1F` [PKS21294] are 0.62 µM and 13.3 µM.
In the same order, the values of `Cc1cc(C(=O)N[C@@H](CC(=O)NC(C)(C)C)C(=O)NCCNC(=O)c2ccccc2F)no1` [PKS21251] are 6.34 µM and 39 µM.
In the same order, the values of `CC(C)(C)NC(=O)C[C@H](NC(=O)CCc1ccc(F)cc1)C(=O)NCCNC(=O)c1ccccn1` [PKS21254] are 7.77 µM and 57.4 µM.
Consider `Cc1cc(C(=O)N[C@@H](CC(=O)NC(C)(C)C)C(=O)NCCNC(=O)c2cc(-c3ccccc3F)ccc2F)no1` [PKS21208], for which the IC50 in assay [1] was found to be 0.027 µM; in assay [2], 1.04 µM.
For the molecule `CC(C)(C)NC(=O)C[C@H](NC(=O)CCc1ccc(F)cc1)C(=O)NCCNC(=O)c1cccc2cccnc12` [PKS21258], the figures for the IC50 in assay [1] and in assay [2] were 2.41 µM and 22.7 µM, respectively.
In the same order, the values of `CC(C)(C)NC(=O)C[C@H](N)C(=O)NCCNC(=O)c1cc(-c2ccccc2F)ccc1F` [PKS21284] are 0.626 µM and 3.09 µM.
As for `Cc1ccc(S(=O)(=O)NCC(=O)NCCNC(=O)c2cc(-c3ccccc3F)ccc2F)cc1` [PKS21289], in assay [1], the “inhibitory activity against β5i (in words)” value is listed as “eliminated inhibitory activity” and the concentration for half-maximal inhibition (IC50) was 40.3 µM. Also, in assay [2], the “inhibitory activity against β5c (in words)” value is “eliminated inhibitory activity” and the IC50 was determined as 60.8 µM.
As to `O=C(CCc1ccc(F)cc1)N[C@@H](CC(=O)NC1(C(F)(F)F)CC1)C(=O)NCCNC(=O)c1cc(-c2ccccc2F)ccc1F` [PKS21279], the IC50 was found to be 0.037 µM in assay [1] and 0.114 µM in assay [2].
The corresponding values for `Cc1ccc(S(=O)(=O)N[C@@H](CC(=O)NC(C)(C)C)C(=O)NCCNC(=O)c2cc(-c3cccc(F)c3)ccc2F)cc1` [PKS21228] are 0.012 µM and 0.42 µM.
Take `C[C@H](NC(=O)OC(C)(C)C)C(=O)NCCNC(=O)c1cc(-c2ccccc2F)ccc1F` [PKS21280]: in assay [1], the “inhibitory activity against β5i (in words)” value is “abolished the inhibitory activities” and the IC50 stood at 33.2 µM. Also, in assay [2], the “inhibitory activity against β5c (in words)” value is “abolished the inhibitory activities” and the IC50 is over 100 µM.
With `Cc1ccc(S(=O)(=O)N[C@@H](CC(=O)NC(C)(C)C)C(=O)NCCNC(=O)c2cccc(N3CCNC3=O)c2)cc1` [PKS21295], the IC50 in assay [1] was found to be 0.129 µM; in assay [2] it was 2.39 µM.
Take `Cc1ccc(S(=O)(=O)N[C@@H](C)C(=O)NCCNC(=O)c2cc(-c3ccccc3F)ccc2F)cc1` [PKS21290]: in assay [1], the “inhibitory activity against β5i (in words)” value is given as “eliminated inhibitory activity” and the IC50 was over 100 µM. Further, in assay [2], the “inhibitory activity against β5c (in words)” value is “eliminated inhibitory activity” and the IC50 is over 100 µM.
Turning to `CC(C)(C)OC(=O)NCC(=O)NCCNC(=O)c1cc(-c2ccccc2F)ccc1F` [PKS21276], in assay [1], the “inhibitory activity against β5i (in words)” value was “abolished the inhibitory activities” and the IC50 is 24.3 µM. Besides, in assay [2], the “inhibitory activity against β5c (in words)” value is reported as “abolished the inhibitory activities” and the IC50 was over 100 µM.
Take `CC(C)(C)NC(=O)C[C@H](NC(=O)CCc1ccccc1)C(=O)NCCNC(=O)c1cc(-c2ccccc2)ccc1F` [PKS21196]: the IC50 in assay [1] is 0.044 µM; in assay [2], 0.818 µM.
The corresponding values for `Cc1cc(C(=O)N[C@@H](CC(=O)NC(C)(C)C)C(=O)NCCNC(=O)c2cc(-c3cccc(F)c3)ccc2F)no1` [PKS21225] are 0.269 µM and 11.8 µM.
The corresponding values for `CC(C)(C)NC(=O)CC[C@H](NC(=O)CCc1ccccc1)C(=O)NCCNC(=O)c1cccc(-c2ccccc2)c1` [PKS21030] are 0.39 µM and 0.068 µM.
The corresponding values for `O=C(CCc1ccc(F)cc1)N[C@@H](CC(=O)NC1(C(F)(F)F)CC1)C(=O)NCCNC(=O)c1cccc(-c2ccccc2)c1` [PKS21278] are 0.08 µM and 0.165 µM.
As for `CC(C)(C)NC(=O)C[C@H](NC(=O)CCc1ccccc1)C(=O)NCCNC(=O)c1cc(-c2cccc(F)c2)ccc1F` [PKS21195], the IC50 was 0.059 µM in assay [1] and 1.94 µM in assay [2].
In the same order, the values of `CC(C)(C)NC(=O)C[C@H](NC(=O)CCc1ccccc1)C(=O)NCCNC(=O)c1cc(-c2ccccc2)ccn1` [PKS21186] are 0.125 µM and 2.76 µM.
The corresponding values for `CC(C)(C)NC(=O)C[C@H](NC(=O)CCc1ccccc1)C(=O)NCCNC(=O)c1cccc(-c2ccc(C#N)cc2)c1` [PKS21028] are 2.06 µM and 7.25 µM.
The corresponding values for `CC(C)(C)NC(=O)C[C@H](NS(=O)(=O)C1CC1)C(=O)NCCNC(=O)c1cc(-c2ccccc2F)ccc1F` [PKS21293] are 0.015 µM and 0.96 µM.
Consider `CC(C)(C)NC(=O)C[C@H](NC(=O)CCc1ccc(F)cc1)C(=O)NCCNC(=O)c1ccc(F)c2ccccc12` [PKS21259], for which the IC50 amounted to 0.158 µM in assay [1] and 2.24 µM in assay [2].
As to `CC(C)(C)NC(=O)C[C@H](NC(=O)OC(C)(C)C)C(=O)NCCNC(=O)c1cc(-c2ccccc2F)ccc1F` [PKS21277], in assay [1], the “inhibitory activity against β5i (in words)” value was “modestly potent”, the “selectivity for β5i over β5c” value worked out at 36 fold and the half-inhibitory concentration (IC50) was found to be 0.112 µM. The IC50 in assay [2] was 3.65 µM.
Regarding `CC(C)(C)NC(=O)C[C@H](NC(=O)CCc1ccc(F)cc1)C(=O)NCCNC(=O)c1ccccc1F` [PKS21255], the half-inhibitory concentration (IC50) was determined as 0.74 µM in assay [1] and 3.64 µM in assay [2].
For the molecule `CC(C)(C)OC(=O)N[C@@H](CC(N)=O)C(=O)NCCNC(=O)c1cc(-c2ccccc2F)ccc1F` [PKS21281], in assay [1], the “inhibitory activity against β5i (in words)” value is on record as “abolished the inhibitory activities” and the IC50 was over 100 µM. Further, in assay [2], the “inhibitory activity against β5c (in words)” value was “abolished the inhibitory activities” and the IC50 was over 100 µM.
On to `Cc1cc(C(=O)N[C@@H](CC(=O)NC(C)(C)C)C(=O)NCCNC(=O)c2ccccn2)no1` [PKS21250], for which the results for the 50% inhibitory concentration (IC50) in assay [1] and in assay [2] were 65.6 µM and over 100 µM, respectively.
In the case of `CC(C)(C)NC(=O)C[C@H](NC(=O)CCc1ccccc1)C(=O)NCCNC(=O)c1cc(-c2ccccc2F)ccc1F` [PKS21187], the “selectivity for β5i over β5c” value in assay [1] is reported as about 20 fold. In addition, the IC50 in assay [1] was 0.016 µM; in assay [2], 0.36 µM.
Turning to `Cc1ccc(S(=O)(=O)N[C@@H](CC(N)=O)C(=O)NCCNC(=O)c2cc(-c3ccccc3F)ccc2F)cc1` [PKS21288], in assay [1], the “inhibitory activity against β5i (in words)” value was “eliminated inhibitory activity” and the IC50 was 4.14 µM. Besides, in assay [2], the “inhibitory activity against β5c (in words)” value is “eliminated inhibitory activity” and the IC50 was over 100 µM.
